US20260013501A1, “HERBICIDAL DERIVATIVES” (SYNGENTA CROP PROTECTION AG, priority 2022, published 2026)

Experiments:
Assay type in all cases: in vivo
[1] = test system: Amaranthus retoflexus (AMARE); assay: Post-emergence Test (Table B2), AMARE; design: key: five-point scale: 5=81-100%, 4=61-80%, 3=41-60%, 2=21-40%, 1=0-20% damage; settings: evaluated after 13 days
Experimental: (§1) Seeds of a variety of test species are sown in standard soil in pots (Ipomoea hederacea (IPOHE), Zea mays (ZEAMX), Echinochloa crus-galli (ECHCG), Amaranthus palmeri (AMAPA), (Amaranthus retoflexus (AMARE), and (Setaria faberi (SETFA)). After 8 days cultivation under controlled conditions in a glasshouse (at 24° C./16° C., day/night; 14 hours light; 65% humidity), the plants are sprayed with an aqueous spray solution derived from the formulation of the technical active ingredient in acetone/water (50:50) solution containing 0.5% Tween 20 (polyoxyethelyene sorbitan monolaurate, CAS RN 9005-64-5). Rate of application is shown in g/ha in the tables below. The test plants are then grown in a glasshouse under controlled conditions in a glasshouse (at 24° C./16° C., day/night; 14 hours light; 65% humidity) and watered twice daily. After 13 days the test is evaluated for the percentage damage caused to the plant. The biological activities are shown in the following table on a five-point scale (5=81-100%; 4=61-80%; 3=41-60%; 2=21-40%; 1=0-20%; -=not tested).

Zea mays (ZEAMX) [2] = assay: Post-emergence Test (Table B2), ZEAMX; design: key: 5-point damage scale: 5=81-100%, 4=61-80%, 3=41-60%, 2=21-40%, 1=0-20%; settings: evaluated after 13 days
How it was run: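 Score: % damage at 13 d on a 5-point scale (5=81-100%; 4=61-80%; 3=41-60%; 2=21-40%; 1=0-20%). Seeds sown in pots, sprayed with test article in acetone/water 50:50 + 0.5% Tween 20; rate in g/ha. Glasshouse 24/16 °C, 14 h light, 65% RH, watered twice daily.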

[3] = test system: Echinochloa crus-galli (ECHCG); assay: Post-emergence Test (Table B2), ECHCG; design: key: 5-point damage scale: 5=81-100%, 4=61-80%, 3=41-60%, 2=21-40%, 1=0-20%; settings: evaluated after 13 days
Experimental: as §1

[4] = test system: Amaranthus palmeri (AMAPA); assay: Post-emergence Test (Table B2), AMAPA; design: key: five-point scale: 5=81-100%, 4=61-80%, 3=41-60%, 2=21-40%, 1=0-20% damage; settings: evaluated after 13 days
Experimental: as §1

Setaria faberi (SETFA) = assay: Post-emergence Test (Table B2), SETFA; design: key: five-point scale: 5=81-100%, 4=61-80%, 3=41-60%, 2=21-40%, 1=0-20% damage; settings: evaluated after 13 days
Experimental: as §1

Zea mays (ZEAMX) [5] = assay: Pre-emergence Test (Table B1), ZEAMX; settings: evaluated after 13 days
[6] = test system: Echinochloa crus-galli (ECHCG); assay: Pre-emergence Test (Table B1), ECHCG; settings: Rate 250 g/Ha, evaluated after 13 days
[7] = test system: Amaranthus retoflexus (AMARE); assay: Pre-emergence Test (Table B1), AMARE; settings: evaluated after 13 days
[8] = test system: Ipomoea hederacea (IPOHE); assay: Pre-emergence Test (Table B1), IPOHE; settings: evaluated after 13 days
[9] = test system: Amaranthus palmeri (AMAPA); assay: Pre-emergence Test (Table B1), AMAPA; settings: evaluated after 13 days

CCn1c(Cc2cccc(C(F)(F)F)c2)cc(=O)c(C(=O)O)c1-c1ccc(Cl)c(Cl)c1 [Compound 8, 2-(3,4-dichlorophenyl)-1-ethyl-4-oxo-6-[[3-(trifluoromethyl)phenyl]methyl]pyridine-3-carboxylic acid]
0: percentage damage caused to the plant, AMARE ([1]; rate 250 g/Ha) | percentage damage caused to the plant, ZEAMX (Zea mays (ZEAMX) [2]; rate 250 g/Ha) | percentage damage caused to the plant, ECHCG ([3]; rate 250 g/Ha) | percentage damage caused to the plant, AMAPA ([4]; rate 250 g/Ha) | percentage damage caused to the plant, SETFA (Setaria faberi (SETFA); rate 250 g/Ha)

CCn1c(Cc2cccc(OC)c2)cc(=O)c(C(=O)O)c1-c1ccc(Cl)c(Cl)c1 [Compound 9, 2-(3,4-dichlorophenyl)-1-ethyl-6-[(3-methoxyphenyl)methyl]-4-oxo-pyridine-3-carboxylic acid]
0: Pre-emergence Test, percentage damage caused to the plant (five-point scale), ZEAMX (Zea mays (ZEAMX) [5]; Rate 250 g/Ha) | percentage damage caused to the plant, AMARE ([1]; rate 250 g/Ha) | Pre-emergence Test, percentage damage caused to the plant (five-point scale), ECHCG [6] | percentage damage caused to the plant, ZEAMX (Zea mays (ZEAMX) [2]; rate 250 g/Ha) | Pre-emergence Test, percentage damage caused to the plant (five-point scale), AMARE ([7]; Rate 250 g/Ha) | percentage damage caused to the plant, ECHCG ([3]; rate 250 g/Ha) | percentage damage caused to the plant, SETFA (Setaria faberi (SETFA); rate 250 g/Ha) | Pre-emergence Test, percentage damage caused to the plant (five-point scale), IPOHE ([8]; Rate 250 g/Ha)

CCn1c(Cc2cc(Cl)cc(Cl)c2)cc(=O)c(C(=O)O)c1-c1ccc(Cl)c(Cl)c1 [Compound 10, 2-(3,4-dichlorophenyl)-6-[(3,5-dichlorophenyl)methyl]-1-ethyl-4-oxo-pyridine-3-carboxylic acid]
0: percentage damage caused to the plant, ZEAMX (Zea mays (ZEAMX) [2]; rate 1000 g/Ha) | percentage damage caused to the plant, ECHCG ([3]; rate 1000 g/Ha) | percentage damage caused to the plant, SETFA (Setaria faberi (SETFA); rate 1000 g/Ha)

CCn1c(Cc2ccccc2C)cc(=O)c(C(=O)O)c1-c1ccc(Cl)c(Cl)c1 [Compound 15, 2-(3,4-dichlorophenyl)-1-ethyl-6-(o-tolylmethyl)-4-oxo-pyridine-3-carboxylic acid]
0: percentage damage caused to the plant, ECHCG ([3]; rate 1000 g/Ha) | percentage damage caused to the plant, SETFA (Setaria faberi (SETFA); rate 1000 g/Ha)

CCn1c(Cc2cncc(Cl)c2)cc(=O)c(C(=O)O)c1-c1ccc(Cl)c(Cl)c1 [Compound 17, 6-[(5-chloro-3-pyridyl)methyl]-2-(3,4-dichlorophenyl]-1-ethyl-4-oxo-pyridine-3-carboxylic acid]
0: Pre-emergence Test, percentage damage caused to the plant (five-point scale), AMAPA ([9]; Rate 250 g/Ha) | Pre-emergence Test, percentage damage caused to the plant (five-point scale), ZEAMX (Zea mays (ZEAMX) [5]; Rate 250 g/Ha) | percentage damage caused to the plant, AMARE ([1]; rate 250 g/Ha) | Pre-emergence Test, percentage damage caused to the plant (five-point scale), ECHCG [6] | percentage damage caused to the plant, ZEAMX (Zea mays (ZEAMX) [2]; rate 250 g/Ha) | Pre-emergence Test, percentage damage caused to the plant (five-point scale), AMARE ([7]; Rate 250 g/Ha) | percentage damage caused to the plant, ECHCG ([3]; rate 250 g/Ha) | percentage damage caused to the plant, AMAPA ([4]; rate 250 g/Ha) | Pre-emergence Test, percentage damage caused to the plant (five-point scale), IPOHE ([8]; Rate 250 g/Ha)

CCn1c(Cc2ccc(C)cc2F)cc(=O)c(C(=O)O)c1-c1ccc(Cl)c(Cl)c1 [Compound 67, 2-(3,4-dichlorophenyl)-1-3ethyl-6-[(2-fluoro-4-methyl-phenyl)methyl]-4-oxo-pyridine-3-3-carboxylic acid]
0: Pre-emergence Test, percentage damage caused to the plant (five-point scale), AMAPA ([9]; Rate 250 g/Ha) | Pre-emergence Test, percentage damage caused to the plant (five-point scale), ZEAMX (Zea mays (ZEAMX) [5]; Rate 250 g/Ha) | Pre-emergence Test, percentage damage caused to the plant (five-point scale), AMARE ([7]; Rate 250 g/Ha) | percentage damage caused to the plant, ECHCG ([3]; rate 250 g/Ha) | percentage damage caused to the plant, AMAPA ([4]; rate 250 g/Ha) | percentage damage caused to the plant, SETFA (Setaria faberi (SETFA); rate 250 g/Ha) | Pre-emergence Test, percentage damage caused to the plant (five-point scale), IPOHE ([8]; Rate 250 g/Ha)

CCn1c(Cc2ccc(F)cc2Cl)cc(=O)c(C(=O)O)c1-c1ccc(Cl)c(Cl)c1 [Compound 68, 6-[(2-chloro-4-fluoro-phenyl)methyl]-2-(3,4-dichlorophenyl)-1-ethyl-4-oxo-3-pyridine-3-carboxylic acid]
0: Pre-emergence Test, percentage damage caused to the plant (five-point scale), ZEAMX (Zea mays (ZEAMX) [5]; Rate 1000 g/Ha) | percentage damage caused to the plant, AMARE ([1]; rate 1000 g/Ha) | percentage damage caused to the plant, ECHCG ([3]; rate 1000 g/Ha) | percentage damage caused to the plant, AMAPA ([4]; rate 1000 g/Ha) | Pre-emergence Test, percentage damage caused to the plant (five-point scale), IPOHE ([8]; Rate 1000 g/Ha)

CCn1c(Cc2ccc(OC)cc2Cl)cc(=O)c(C(=O)O)c1-c1ccc(Cl)c(Cl)c1 [Compound 69, 6-[(2-chloro-4-methoxy-phenyl)methyl]-2-(3,4-dichlorophenyl)-1-ethyl-4-oxo-pyridine-3-carboxylic acid]
0: Pre-emergence Test, percentage damage caused to the plant (five-point scale), AMAPA ([9]; Rate 1000 g/Ha) | Pre-emergence Test, percentage damage caused to the plant (five-point scale), ZEAMX (Zea mays (ZEAMX) [5]; Rate 1000 g/Ha) | percentage damage caused to the plant, AMARE ([1]; rate 1000 g/Ha) | Pre-emergence Test, percentage damage caused to the plant (five-point scale), AMARE ([7]; Rate 1000 g/Ha) | percentage damage caused to the plant, ECHCG ([3]; rate 1000 g/Ha) | percentage damage caused to the plant, AMAPA ([4]; rate 1000 g/Ha) | Pre-emergence Test, percentage damage caused to the plant (five-point scale), IPOHE ([8]; Rate 1000 g/Ha)

CCn1c(Cc2ccc(F)c(Cl)c2)cc(=O)c(C(=O)O)c1-c1ccc(Cl)c(Cl)c1 [Compound 75, 6-[(3-chloro-4-fluoro-phenyl)methyl]-2-(3,4-dichlorophenyl)-1-ethyl-4-oxo-pyridine-3-carboxylic acid]
0: Pre-emergence Test, percentage damage caused to the plant (five-point scale), ZEAMX (Zea mays (ZEAMX) [5]; Rate 1000 g/Ha) | percentage damage caused to the plant, AMARE ([1]; rate 1000 g/Ha) | percentage damage caused to the plant, ZEAMX (Zea mays (ZEAMX) [2]; rate 1000 g/Ha) | percentage damage caused to the plant, AMAPA ([4]; rate 1000 g/Ha)

CCn1c(Cc2ccc(OC)c(Cl)c2)cc(=O)c(C(=O)O)c1-c1ccc(Cl)c(Cl)c1 [Compound 86, 6-[(3-chloro-4-methoxy-phenyl)methyl]-2-(3,4-dichlorophenyl)-1-ethyl-4-oxo-pyridine-3-carboxylic acid]
0: Pre-emergence Test, percentage damage caused to the plant (five-point scale), AMAPA ([9]; Rate 250 g/Ha) | Pre-emergence Test, percentage damage caused to the plant (five-point scale), ZEAMX (Zea mays (ZEAMX) [5]; Rate 250 g/Ha) | percentage damage caused to the plant, AMARE ([1]; rate 250 g/Ha) | percentage damage caused to the plant, AMAPA ([4]; rate 250 g/Ha) | Pre-emergence Test, percentage damage caused to the plant (five-point scale), IPOHE ([8]; Rate 250 g/Ha)

CCn1c(Cc2ccc(C)c(C#N)n2)cc(=O)c(C(=O)O)c1-c1ccc(Cl)c(Cl)c1 [Compound 113, 6-[(6-cyano-5-methyl-2-pyridyl)methyl]-2-(3,4-dichlorophenyl)-1-ethyl-4-oxo-pyridine-3-carboxylic acid]
0: Pre-emergence Test, percentage damage caused to the plant (five-point scale), AMAPA ([9]; Rate 250 g/Ha) | Pre-emergence Test, percentage damage caused to the plant (five-point scale), ZEAMX (Zea mays (ZEAMX) [5]; Rate 250 g/Ha) | percentage damage caused to the plant, AMARE ([1]; rate 250 g/Ha) | Pre-emergence Test, percentage damage caused to the plant (five-point scale), AMARE ([7]; Rate 250 g/Ha) | percentage damage caused to the plant, AMAPA ([4]; rate 250 g/Ha)

CCn1c(Cc2cc(C)n(C)n2)cc(=O)c(C(=O)O)c1-c1ccc(Cl)c(Cl)c1 [Compound 120, 2-(3,4-dichlorophenyl)-6-[(1,5-dimethylpyrazol-3-yl)methyl]-1-ethyl-4-oxo-pyridine-3-carboxylic acid]
0: Pre-emergence Test, percentage damage caused to the plant (five-point scale), AMAPA ([9]; Rate 250 g/Ha) | Pre-emergence Test, percentage damage caused to the plant (five-point scale), ZEAMX (Zea mays (ZEAMX) [5]; Rate 250 g/Ha) | percentage damage caused to the plant, AMARE ([1]; rate 250 g/Ha) | Pre-emergence Test, percentage damage caused to the plant (five-point scale), ECHCG [6] | Pre-emergence Test, percentage damage caused to the plant (five-point scale), AMARE ([7]; Rate 250 g/Ha) | percentage damage caused to the plant, AMAPA ([4]; rate 250 g/Ha) | Pre-emergence Test, percentage damage caused to the plant (five-point scale), IPOHE ([8]; Rate 250 g/Ha)

CCOc1cccc(Cc2cc(=O)c(C(=O)O)c(-c3ccc(Cl)c(Cl)c3)n2CC)n1 [Compound 127, 2-(3,4-dichlorophenyl)-6-[(6-ethoxy-2-pyridyl)methyl]-1-ethyl-4-oxo-pyridine-3-carboxylicacid]
0: Pre-emergence Test, percentage damage caused to the plant (five-point scale), AMAPA ([9]; Rate 250 g/Ha) | Pre-emergence Test, percentage damage caused to the plant (five-point scale), ZEAMX (Zea mays (ZEAMX) [5]; Rate 250 g/Ha) | Pre-emergence Test, percentage damage caused to the plant (five-point scale), ECHCG [6] | percentage damage caused to the plant, ZEAMX (Zea mays (ZEAMX) [2]; rate 250 g/Ha) | Pre-emergence Test, percentage damage caused to the plant (five-point scale), AMARE ([7]; Rate 250 g/Ha) | percentage damage caused to the plant, ECHCG ([3]; rate 250 g/Ha) | percentage damage caused to the plant, SETFA (Setaria faberi (SETFA); rate 250 g/Ha) | Pre-emergence Test, percentage damage caused to the plant (five-point scale), IPOHE ([8]; Rate 250 g/Ha)

CCn1c(Cc2cc(C)on2)cc(=O)c(C(=O)O)c1-c1ccc(Cl)c(Cl)c1 [Compound 135, 2-(3,4-dichlorophenyl)-1-ethyl-6-[(5-methylisoxazol-3-yl)methyl]-4-oxo-pyridine-3-carboxylic acid]
0: Pre-emergence Test, percentage damage caused to the plant (five-point scale), AMAPA ([9]; Rate 250 g/Ha) | Pre-emergence Test, percentage damage caused to the plant (five-point scale), ZEAMX (Zea mays (ZEAMX) [5]; Rate 250 g/Ha) | Pre-emergence Test, percentage damage caused to the plant (five-point scale), ECHCG [6] | percentage damage caused to the plant, ECHCG ([3]; rate 250 g/Ha) | percentage damage caused to the plant, SETFA (Setaria faberi (SETFA); rate 250 g/Ha) | Pre-emergence Test, percentage damage caused to the plant (five-point scale), IPOHE ([8]; Rate 250 g/Ha)
